Measured values as given in patent US20260284011A1, “COMPOUNDS FOR RESTORING SUSCEPTIBILITY TO BETA-LACTAM ANTIBIOTICS” (UNIVERSITY OF NOTRE DAME DU LAC, priority 2023, published 2026).
Where two headings read alike, the source gives them in different places.

What was measured:
Assay in all cases: MIC determination and potentiation assay (microdilution broth)
ATCC 29213, MSSA, bla + = assay type: cell-based, Staphylococcus aureus; conditions: for MIC: Staphylococcus aureus
Experimental: (§1) MICs were determined by the microdilution broth method following the Clinical & Laboratory Standards Institute (CLSI) guidelines. […] Experiments were performed in triplicate in 96-well plates with 5×10^5 CFU·mL^−1 of bacteria. […] The MIC was the concentration for which bacterial growth was not observed.

[1] = test system: COL (NRS100), MRSA, SCCmec I, bla −; assay type: cell-based, Staphylococcus aureus; conditions: for MIC: Staphylococcus aureus
Experimental: as §1

[2] = test system: HIP 133170 (VRS3a), MRSA/VRSA, SCCmec IV, bla +; assay type: cell-based, Staphylococcus aureus; conditions: for MIC: Staphylococcus aureus
Experimental: as §1

[3] = test system: HIP07920 (NRS21), MRSA/VISA, SCCmec IV, bla +; assay type: cell-based, Staphylococcus aureus; conditions: for MIC: Staphylococcus aureus, agent alone
Experimental: as §1

[4] = test system: HIP15178 (VRS5), MRSA/VRSA, SCCmec II, bla +; assay type: cell-based, Staphylococcus aureus; conditions: for MIC: Staphylococcus aureus
Experimental: as §1

[5] = test system: JE2, MRSA, SCCmec IV, bla −; assay type: cell-based, Staphylococcus aureus; conditions: for MIC: Staphylococcus aureus, MRSA, agent alone
Experimental: as §1

[6] = test system: LIM2 (NRS36), MRSA, SCCmec I, bla +; assay type: cell-based, Staphylococcus aureus; conditions: for MIC: Staphylococcus aureus
Experimental: as §1

[7] = test system: NTCT 8325 (NRS77), MSSA, bla −; assay type: cell-based, Staphylococcus aureus; conditions: for MIC: Staphylococcus aureus
Experimental: as §1

[8] = test system: 880, MRSA, SCCmec IV, bla +; assay type: cell-based
Experimental: as §1

[9] = test system: AIS 1000505 (VRS10), MRSA, vancomycin-resistant, SCCmec II, bla +; assay type: cell-based; conditions: Staphylococcus aureus
Experimental: as §1

[10] = test system: ATCC 33591, MRSA, SCCmec III, bla +; assay type: cell-based; conditions: Staphylococcus aureus
Experimental: as §1

[11] = test system: CA-347 (NRS648), MRSA, SCCmec II, bla +; assay type: cell-based; conditions: Staphylococcus aureus
Experimental: as §1

[12] = test system: CO-23 (NRS661), MRSA, SCCmec II, bla +; assay type: cell-based; conditions: Staphylococcus aureus
Experimental: as §1

[13] = test system: CO-34 (NRS662), MRSA, SCCmec IV, bla +; assay type: cell-based; conditions: Staphylococcus aureus
Experimental: as §1

[14] = test system: H2138 (NRS271), MRSA, SCCmec IV, bla +; assay type: cell-based; conditions: Staphylococcus aureus
Experimental: as §1

[15] = test system: HFH 30495, MRSA, SCCmec II, bla +; assay type: cell-based; conditions: Staphylococcus aureus
Experimental: as §1

[16] = test system: HI049, MRSA, USA300 clone, SCCmec IV, bla +; assay type: cell-based; conditions: Staphylococcus aureus, agent alone
Experimental: as §1

[17] = test system: HIP06297 (NRS17), MRSA, SCCmec II, bla +; assay type: cell-based; conditions: Staphylococcus aureus
Experimental: as §1

[18] = test system: HIP5836 (NRS4), MRSA/VISA, SCCmec II, bla +; assay type: cell-based; conditions: Staphylococcus aureus, agent alone
Experimental: as §1

[19] = test system: HT 20020320 (NRS245), MRSA, SCCmec IV, bla +; assay type: cell-based; conditions: Staphylococcus aureus
Experimental: as §1

[20] = test system: LinR#12 (NRS119), MRSA, SCCmec IV, bla +; assay type: cell-based; conditions: Staphylococcus aureus
Experimental: as §1

[21] = test system: M1712 (NRS127), MRSA, SCCmec II, bla +; assay type: cell-based; conditions: Staphylococcus aureus
Experimental: as §1

[22] = test system: MW2 (NRS123), MRSA, SCCmec IV, bla +; assay type: cell-based; conditions: Staphylococcus aureus
Experimental: as §1

[23] = test system: N315 (NRS70), MRSA, SCCmec II, bla +; assay type: cell-based; conditions: Staphylococcus aureus
Experimental: as §1

[24] = test system: SR4035, MRSA, SCCmec IV, bla +; assay type: cell-based; conditions: Staphylococcus aureus
Experimental: as §1

[25] = test system: USA300-0114 (NRS384), MRSA, SCCmec IV, bla +; assay type: cell-based; conditions: Staphylococcus aureus
Experimental: as §1

[26] = ATCC 29213, agent alone, read-out: MIC
[27] = COL (NRS100), agent alone, read-out: MIC
[28] = HIP 133170 (VRS3a), agent alone, read-out: MIC
[29] = HIP15178 (VRS5), agent alone, read-out: MIC
[30] = LIM2 (NRS36), agent alone, read-out: MIC
[31] = NTCT 8325 (NRS77), agent alone, read-out: MIC
[32] = Staphylococcus aureus, 880, agent alone, read-out: MIC
[33] = AIS 1000505 (VRS10), agent alone, read-out: MIC
[34] = ATCC 33591, agent alone, read-out: MIC
[35] = CA-347 (NRS648), agent alone, read-out: MIC
[36] = CO-23 (NRS661), agent alone, read-out: MIC
[37] = CO-34 (NRS662), agent alone, read-out: MIC
[38] = H2138 (NRS271), agent alone, read-out: MIC
[39] = HFH 30495, agent alone, read-out: MIC
[40] = HIP06297 (NRS17), agent alone, read-out: MIC
[41] = HT 20020320 (NRS245), agent alone, read-out: MIC
[42] = LinR#12 (NRS119), agent alone, read-out: MIC
[43] = M1712 (NRS127), agent alone, read-out: MIC
[44] = MW2 (NRS123), agent alone, read-out: MIC
[45] = N315 (NRS70), agent alone, read-out: MIC
[46] = SR4035, agent alone, read-out: MIC
[47] = USA300-0114 (NRS384), agent alone, read-out: MIC
[48] = MSSA strain ATCC29213, 4 at 8 mg·L^−1
[49] = strain NTCT8325, 4 at 8 mg·L^−1

CCO/N=C(\C(=O)N[C@@H]1C(=O)N2C(C(=O)[O-])=C(Sc3nc(-c4cc[n+](C)cc4)cs3)CS[C@H]12)c1nsc(N)n1 [CPT, ceftaroline]
0.5 µg/mL: MIC ([3]; HIP07920 (NRS21)) | MIC [19, 41] | MIC [25, 47]
0.25 µg/mL: MIC [7, 31] | MIC [18]
1 µg/mL: MIC [1, 27] | MIC [2, 28] | MIC [4, 29] | MIC [5] | MIC [6, 30] | MIC [8, 32] | MIC [9, 33] | MIC [10, 34] | MIC [11, 35] | MIC [12, 36] | MIC [13, 37] | MIC [14, 38] | MIC [15, 39] | MIC [16] | MIC [17, 40] | MIC [20, 42] | MIC [21, 43] | MIC [22, 44] | MIC [23, 45] | MIC [24, 46]
0.06 µg/mL: MIC (ATCC 29213, MSSA, bla +; [26])

N#Cc1ccc2nc(SCB(O)O)n(Cc3ccc(C(F)(F)F)cc3C(F)(F)F)c2c1 [Compound 4, (((1-(2,4-bis(trifluoro-methyl)benzyl)-6-cyano-1H-benzo[d]imidazol-2-yl)thio)methyl)boronic acid]
512 fold: fold lowering of MEM MIC by 4 ([6]; strain NRS36, 4 at 8 mg·L^−1)
no effect: effect of 4 on the OXA MIC [7, 49]
2048 fold: fold lowering of FOX MIC by 4 ([3]; strain NRS21, 4 at 4 mg·L^−1)
16 fold: fold lowering of MEM MIC by 4 ([1]; COL, 4 at 8 mg·L^−1)
256 fold: fold lowering of MEM MIC by 4 ([2]; vancomycin-resistant MRSA, Table 1 entry 19 (VRS3a))
4 fold: fold lowering of OXA MIC by 4 (ATCC 29213, MSSA, bla +; [48])
4096 fold: fold reduction of OXA MIC by 4 ([3]; strain NRS21, 4 at 4 mg·L^−1)
32 µg/mL: MIC [1, 27] | MIC [4, 29] | MIC [12, 36] | MIC [17, 40]
16 µg/mL: MIC (ATCC 29213, MSSA, bla +; [26]) | MIC [2, 28] | MIC [5] | MIC [6, 30] | MIC [7, 31] | MIC [8, 32] | MIC [9, 33] | MIC [10, 34] | MIC [11, 35] | MIC [13, 37] | MIC [14, 38] | MIC [15, 39] | MIC [16] | MIC [18] | MIC [19, 41] | MIC [20, 42] | MIC [21, 43] | MIC [22, 44] | MIC [23, 45] | MIC [24, 46] | MIC [25, 47]
8 µg/mL: MIC ([3]; HIP07920 (NRS21))
64 fold: fold lowering of MEM MIC by 4 ([4]; vancomycin-resistant MRSA, Table 1 entry 13 (VRS5)) | fold lowering of MEM MIC by 4 ([5]; 4 at 8 mg·L^−1) | fold lowering of OXA MIC by 4 ([6]; strain NRS36, 4 at 8 mg·L^−1)
2 fold: fold lowering of MEM MIC by 4 (ATCC 29213, MSSA, bla +; [48]) | fold reduction of OXA MIC by 4 ([1]; COL, 4 at 8 mg·L^−1) | fold reduction of OXA MIC by 4 ([5]; 4 at 8 mg·L^−1) | fold lowering of MEM MIC by 4 [7, 49]

CO[C@@]1(NC(=O)Cc2cccs2)C(=O)N2C(C(=O)O)=C(COC(N)=O)CS[C@@H]21 [FOX, cefoxitin]
4 µg/mL: MIC (ATCC 29213, MSSA, bla +; [26]) | MIC [7, 31]
128 µg/mL: MIC [2] | MIC [4] | MIC [6] | MIC [9] | MIC [10] | MIC [11] | MIC [12] | MIC [14] | MIC [19] | MIC [21] | MIC [23] | MIC [24]
64 µg/mL: MIC ([3]; HIP07920 (NRS21)) | MIC [5] | MIC [8, 32] | MIC [13, 37] | MIC [16] | MIC [18] | MIC [22, 44] | MIC [25, 47]
256 µg/mL: MIC [1, 27] | MIC [15, 39] | MIC [17, 40] | MIC [20, 42]

C[C@@H](O)[C@H]1C(=O)N2C(C(=O)O)=C(S[C@@H]3CN[C@H](C(=O)N(C)C)C3)[C@H](C)[C@H]12 [MEM, meropenem]
16 µg/mL: MIC [1, 27] | MIC [2, 28] | MIC [8, 32] | MIC [10, 34] | MIC [11, 35] | MIC [14, 38] | MIC [21, 43] | MIC [23, 45] | MIC [24, 46]
4 µg/mL: MIC [5] | MIC [17, 40] | MIC [22, 44] | MIC [25, 47]
0.13 µg/mL: MIC (ATCC 29213, MSSA, bla +; [26]) | MIC [7, 31]
8 µg/mL: MIC ([3]; HIP07920 (NRS21)) | MIC [4, 29] | MIC [6, 30] | MIC [13, 37] | MIC [16] | MIC [18] | MIC [19, 41]
32 µg/mL: MIC [9, 33] | MIC [12, 36] | MIC [15, 39] | MIC [20, 42]

Cc1onc(-c2ccccc2)c1C(=O)N[C@@H]1C(=O)N2[C@@H]1SC(C)(C)[C@@H]2C(=O)O [OXA, oxacillin]
128 µg/mL: MIC [24] | MIC [25]
256 µg/mL: MIC [2] | MIC [4] | MIC ([8]; Staphylococcus aureus) | MIC [9] | MIC [11] | MIC [12] | MIC [14] | MIC [21]
512 µg/mL: MIC [1] | MIC [10] | MIC [15] | MIC [20]
0.25 µg/mL: MIC [7]
64 µg/mL: MIC [6] | MIC [13] | MIC [19] | MIC [22]
2 µg/mL: MIC (ATCC 29213, MSSA, bla +) | MIC [17]
0.03 µg/mL: MIC of the β-lactam with 4 ([3]; HIP07920 (NRS21), Concentration of 4: 4 mg · L^−1)
